Activity calls are given as the source filed them. How the calls were made is not given here. Bounds are passed on as bounds.

Here are results for 53 compounds from PubChem BioAssay AID2839 (Southern Research Specialized Biocontainment Screening …, 2010).

System in one assay: not listed separately
As to the kind of experiment: PhoP promoter GFP reporter reduction in Typhi – purified and synthesized compounds, set 2, PhoP regulon inhibitor project, dose response (AID 2839). The settings on record: Salmonella Typhi PhoP-promoter GFP reporter, low Mg2+, 4 h; at 150 µM (top of the series).
Usually inhibition stands for the drop in the measured response relative to a control, in per cent. As to `O=C(Nc1ccccc1Cl)N1CCCN(Cc2ccccc2F)C1`, the inhibition is 16.8% (inactive).

Regarding `O=C(Nc1ccccc1)N1CCCN(Cc2ccccc2F)C1`, the inhibition was 28.7% (inactive).

For `Cc1ccc(NC(=S)NCc2ccc(Cl)cc2)cc1`, the inhibition is 13.6% (inactive).

As to `COc1ccc(NC(=S)NCc2ccc(Cl)cc2)cc1`, the inhibition is 8.24% (inactive).

For the compound `CCn1cc(C(=O)O)c(=O)c2cc(F)c(N3CCN(C(=S)NCc4ccccc4)CC3)cc21`, the inhibition is 9.85% (inactive).

As to `S=C(NCc1ccc(Cl)cc1)Nc1cccnc1`, the inhibition is -36.6% (inactive).

Take `CCn1cc(C(=O)O)c(=O)c2cc(F)c(N3CCN(C(=S)NC)CC3)cc21`: the inhibition was 4.25% (inactive).

Take `COc1cccc(NC(=S)NCc2ccc(Cl)cc2)c1`: the inhibition is -3.63% (inactive).

On to `O=C1C2=C(Nc3ccccc3SC2c2ccccc2C(F)(F)F)c2ccccc21` (stereo not drawn), for which the inhibition was 7.29% (inactive).

Regarding `S=C(NCc1ccc(Cl)cc1)Nc1ccc(Br)cc1`, the inhibition is 6.57% (inactive).

As for `Cc1cccc(NC(=S)NCc2ccc(Cl)cc2)c1`, the inhibition is 16.8% (inactive).

Regarding `S=C(NCc1ccc(Cl)cc1)Nc1cccc(Cl)c1`, the inhibition is 29.4% (inactive).

Regarding `O=C(NCc1ccccc1)N1CCCN(Cc2ccccc2F)C1`, the inhibition was 6.93% (inactive).

As for `S=C(NCc1ccc(Cl)cc1)Nc1ccc(Cl)cc1`, the inhibition was 22.4% (inactive).

In the case of `Fc1ccccc1NC(=S)NCc1ccc(Cl)cc1`, the inhibition is -0.65% (inactive).

The next assay has as its system Salmonella Typhi PhoP-promoter GFP reporter, low Mg2+, 4 h. The assay is described as above.
Details: not given
In general, IC50 refers to the concentration at which inhibition is half-maximal. As to `O=C1C2=C(Nc3ccccc3SC2c2ccsc2)c2ccccc21` (stereo not drawn), the half-maximal inhibitory concentration (IC50) was 34.5 µM.

Take `C1=C(CCNc2ncnc3c2[nH]c2ccccc23)CCCC1`: the IC50 is 106 µM.

As for `CN1CCc2nc(SCC(=O)Nc3cccc(F)c3)c(C#N)c(-c3cccs3)c2C1`, the IC50 was 0.05 µM.

On to `Cc1ccc(CN2CCCN(C(=O)Nc3ccc(Cl)cc3)C2)cc1`, for which the half-maximal inhibitory concentration (IC50) is 46.2 µM.

As to `COc1ccccc1NC(=O)N1CCCN(Cc2ccccc2F)C1`, the IC50 is 136 µM.

As to `COc1c(N2CCN(C(=S)NCc3ccccc3)C(C)C2)c(F)cc2c(=O)c(C(=O)O)cn(C3CC3)c12` (stereo not drawn), the half-inhibitory concentration (IC50) was 79.1 µM.

On to `Cc1ccc(Nc2cc(C)c3c(O)cccc3n2)cc1C`, for which the IC50 is 9.67 µM.

In the case of `O=C1c2ccccc2C2=Nc3ccccc3SC(c3ccccc3F)C12` (stereo not drawn), the IC50 is less than 0.15 µM.

As for `CN1CCN(C2=Cc3cc(Cl)ccc3Sc3cc(F)ccc32)CC1`, the half-inhibitory concentration (IC50) is 53.7 µM.

Regarding `COc1cccc(C2Sc3ccccc3NC3=C2C(=O)c2ccccc23)c1` (stereo not drawn), the IC50 is 33.4 µM.

As to `CCn1cc(C(=O)O)c(=O)c2cc(F)c(N3CCN(C(=S)NC(=O)c4ccccc4Cl)CC3)cc21`, the IC50 was 20.5 µM.

On to `O=C(O)c1cn(-c2ccc(F)cc2)c2cc(Cl)c(F)cc2c1=O`, for which the half-inhibitory concentration (IC50) is less than 0.15 µM.

Consider `O=C(Nc1ccc(Br)cc1)N1CCCN(Cc2ccccc2F)C1`, for which the IC50 is 61.6 µM.

Take `O=C1C2=C(Nc3ccccc3SC2c2ccc(I)cc2)c2ccccc21` (stereo not drawn): the concentration for half-maximal inhibition (IC50) was 3.67 µM.

As for `O=[N+]([O-])c1ccc(CNC2CCCc3ccccc32)cc1` (stereo not drawn), the IC50 was 16.6 µM.

For `CCOc1ccc(NC(=S)N2CCN(c3cc4c(cc3F)c(=O)c(C(=O)O)cn4CC)CC2)cc1`, the half-maximal inhibitory concentration (IC50) is 47.6 µM.

Consider `CCn1cc(C(=O)O)c(=O)c2cc(F)c(N3CCN(C(=S)Nc4ccc(Cl)cc4)CC3)cc21`, for which the concentration for half-maximal inhibition (IC50) was 60.8 µM.

For the compound `CN(C)CCCN(C(=O)CCc1ccccc1)c1nc2ccc(Cl)cc2s1`, the IC50 was less than 0.15 µM.

`COc1ccccc1Nc1nc(NCc2ccco2)c2ccccc2n1`: the IC50 was less than 0.15 µM.

Regarding `COc1ccc(NC(=O)c2cc(Br)c(Br)s2)cn1`, the IC50 is less than 0.15 µM.

For `O=S(=O)(Nc1c(S(=O)(=O)c2ccccc2)c2nc3ccccc3nc2n1C1CCCCC1)c1ccccc1`, the concentration for half-maximal inhibition (IC50) was less than 0.15 µM.

In the case of `S=C(NCc1ccccc1Cl)Nc1ccncc1`, the IC50 is 131 µM.

`O=C(Nc1nnc(-c2cccs2)o1)c1cccc(C(F)(F)F)c1`: the 50% inhibitory concentration (IC50) is 80.1 µM.

Regarding `CCCCn1c(NS(=O)(=O)c2ccc(C)cc2)c(S(=O)(=O)c2ccccc2)c2nc3ccccc3nc21`, the IC50 was less than 0.15 µM.

As to `O=C(Nc1cccnc1)c1cc(Br)c(Br)s1`, the half-maximal inhibitory concentration (IC50) is less than 0.15 µM.

As for `CCCCCNC(=O)c1cn(CC)c2cc(N3CCN(C)CC3)c(F)cc2c1=O`, the 50% inhibitory concentration (IC50) was less than 0.15 µM.

In the case of `O=C1C2=C(Nc3ccccc3SC2c2ccc(C(F)(F)F)cc2)c2ccccc21` (stereo not drawn), the 50% inhibitory concentration (IC50) is less than 2.35 µM.

`CCCCn1c(NS(=O)(=O)c2ccccc2)c(S(=O)(=O)c2ccc(C)cc2)c2nc3ccccc3nc21`: the half-maximal inhibitory concentration (IC50) was less than 0.15 µM.

Turning to `O=C(Nc1ccccc1)N1CCCN(Cc2ccc(F)cc2)C1`, the IC50 was 72.2 µM.

With `O=C(Nc1ccc(Cl)cc1)N1CCCN(Cc2ccccc2F)C1`, the half-maximal inhibitory concentration (IC50) was 31.3 µM.

Take `O=c1c2ccccc2[nH]c2ccc(F)cc12`: the IC50 was less than 0.15 µM.

On to `N#C/C(=C\c1ccc[nH]1)C(=O)NC1CC1`, for which the half-inhibitory concentration (IC50) was 60.4 µM.

With `O=C(Nc1ccc(Cl)cc1)N1CCCN(Cc2ccc(F)cc2)C1`, the IC50 is 61.4 µM.

For `CCn1cc(C(=O)O)c(=O)c2cc(F)c(N3CCN(C(=S)Nc4ccccc4C(F)(F)F)CC3)cc21`, the IC50 is 24.1 µM.

On to `COc1ccc(CNC(=S)Nc2ccncc2)cc1`, for which the IC50 was 48.1 µM.

Regarding `CCn1cc(C(=O)O)c(=O)c2cc(F)c(N3CCN(C(=S)NC(=O)c4ccccc4F)CC3)cc21`, the IC50 was 95.9 µM.

With `O=C1C2=C(Nc3ccccc3SC2c2ccco2)c2ccccc21` (stereo not drawn), the IC50 is 16.8 µM.

For `S=C(NCc1ccc(Cl)cc1)Nc1ccncc1`, the IC50 was 15.9 µM.
